Results reported in the supplement of paper PMC11061612.

Tests used:
Assay in all cases: combination Emax (second highest fraction inhibited in the dose matrix, 72 h); higher = more inhibition; extreme values may be limits of the assay
[1] = tested on: CAL-62 (Thyroid Gland Carcinoma)
Procedure, shortened: (§1)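 After 24 hours at 37°C and 5% CO2 in 1536-well plates, cells in DMEM/F12 or RPMI plus 10% FBS received two-drug dose matrices for 72 hours. Viability came from CellTiter-Glo 2.0 luminescence and was scaled as inhibition, anchored at 0 by vehicle wells and at 1 by blank wells. Combination Emax is taken as the second-highest inhibition in the matrix, and Bliss excess as the observed combination effect less EA + EB − EA·EB, with EA and EB the single-agent effects.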

[2] = tested on: HSC-39 (Gastric Carcinoma)
Procedure, shortened: as §1

[3] = tested on: IST-MES1 (Mesothelioma)
Procedure, shortened: as §1

[4] = tested on: LK-2 (Squamous Cell Lung Carcinoma)
Procedure, shortened: as §1

[5] = tested on: MFE-280 (Endometrial Carcinoma)
Procedure, shortened: as §1

[6] = tested on: MKN45 (Gastric Carcinoma)
Procedure, shortened: as §1

[7] = tested on: NB12 (Neuroblastoma)
Procedure, shortened: as §1

[8] = tested on: NCI-H2342 (Lung Adenocarcinoma)
Procedure, shortened: as §1

[9] = tested on: OPM-2 (Plasma Cell Myeloma)
Procedure, shortened: as §1

[10] = tested on: OVMIU (Ovarian Carcinoma)
Procedure, shortened: as §1

[11] = tested on: PANC-03-27 (Pancreatic Carcinoma)
Procedure, shortened: as §1

[12] = tested on: PSN1 (Pancreatic Carcinoma)
Procedure, shortened: as §1

[13] = tested on: RCM-1 (Colorectal Carcinoma)
Procedure, shortened: as §1

[14] = tested on: REH (B-Lymphoblastic Leukemia)
Procedure, shortened: as §1

[15] = tested on: RKN (Other Solid Carcinomas)
Procedure, shortened: as §1

[16] = tested on: SF539 (Glioblastoma)
Procedure, shortened: as §1

[17] = tested on: SK-MEL-2 (Melanoma)
Procedure, shortened: as §1

[18] = tested on: SK-PN-DW (Other Solid Carcinomas)
Procedure, shortened: as §1

[19] = tested on: TE-8 (Esophageal Squamous Cell Carcinoma)
Procedure, shortened: as §1

[20] = tested on: VAL (B-Cell Non-Hodgkin's Lymphoma)
Procedure, shortened: as §1

SMILES | combination Emax [1] | combination Emax [2] | combination Emax [3] | combination Emax [4] | combination Emax [5] | combination Emax [6] | combination Emax [7] | combination Emax [8] | combination Emax [9] | combination Emax [10] | combination Emax [11] | combination Emax [12] | combination Emax [13] | combination Emax [14] | combination Emax [15] | combination Emax [16] | combination Emax [17] | combination Emax [18] | combination Emax [19] | combination Emax [20]
C[C@@H](Nc1cc(F)cc(F)c1)c1cc(C(=O)N(C)C)cc2c(=O)cc(N3CCOCC3)oc12 [AZD8186] + CC(=O)c1c(C)c2cnc(Nc3ccc(N4CCNCC4)cn3)nc2n(C2CCCC2)c1=O [Palbociclib] (first compound max 10 µM, 7x7, partner max 10 µM) | 0.36 | 0.813 | 0.454 | 0.237 | 0.518 | 0.534 | 0.403 | 0.337 | 0.563 | 0.497 | 0.513 | 0.558 | 0.335 | 0.625 | 0.292 | 0.412 | 0 | 0.644 | 0.502 | 0.707
C[C@@H](Oc1cc(-c2cnn(C3CCNCC3)c2)cnc1N)c1c(Cl)ccc(F)c1Cl [Crizotinib] + CC1=C(C(=CC=C1)Cl)NC(=O)C2=CN=C(S2)NC3=CC(=NC(=N3)C)N4CCN(CC4)CCO [Dasatinib] (first compound max 10 µM, 7x7, partner max 2 µM) | 0.677 | 1 | 0.938 | 0.765 | 0.661 | 0.854 | 0.766 | 0.37 | 0.964 | 0.933 | 0.887 | 0.777 | 0.61 | 0.752 | 0.567 | 0.886 | 0.0969 | 0.763 | 0.838 | 0.841
C[C@@H](Oc1cc(-c2cnn(C3CCNCC3)c2)cnc1N)c1c(Cl)ccc(F)c1Cl [Crizotinib] + Cn1cnc2c(F)c(Nc3ccc(Br)cc3Cl)c(C(=O)NOCCO)cc21 [Selumetinib] (first compound max 10 µM, 7x7, partner max 10 µM) | 0.564 | 0.975 | 0.864 | 0.749 | 0.28 | 0.902 | 0.79 | 0.285 | 0.985 | 0.498 | 0.543 | 0.963 | 0.761 | 0.721 | 0.48 | 0.764 | 0.881 | 0.739 | 0.631 | 0.758
CS(=O)(=O)CCNCc1ccc(-c2ccc3ncnc(Nc4ccc(OCc5cccc(F)c5)c(Cl)c4)c3c2)o1 [Lapatinib] + Cn1cnc2c(F)c(Nc3ccc(Br)cc3Cl)c(C(=O)NOCCO)cc21 [Selumetinib] (first compound max 10 µM, 7x7, partner max 10 µM) | 0.477 | 0.99 | 0.55 | 0.485 | 0.274 | 0.635 | 0.354 | 0.257 | 0.533 | 0.671 | 0.812 | 0.748 | 0.754 | 0.237 | 0.369 | 0.601 | 0.793 | 0.556 | 0.521 | 0.597
O=C(c1cc(Cc2n[nH]c(=O)c3ccccc23)ccc1F)N1CCN(C(=O)C2CC2)CC1 [Olaparib] + CC1(C)CCC(CN2CCN(c3ccc(C(=O)NS(=O)(=O)c4ccc(NCC5CCOCC5)c([N+](=O)[O-])c4)c(Oc4cnc5[nH]ccc5c4)c3)CC2)=C(c2ccc(Cl)cc2)C1 [Venetoclax] (first compound max 10 µM, 7x7, partner max 1 µM) | 0.0638 | 0.205 | 0.283 | 0.347 | 0.169 | 0.201 | 0.922 | 0.158 | 0.256 | 0.114 | 0.12 | 0.192 | 0.0674 | 0.966 | 0.119 | 0.358 | 0.162 | 0.301 | 0.137 | 1
O=C(c1cc(Cc2n[nH]c(=O)c3ccccc23)ccc1F)N1CCN(C(=O)C2CC2)CC1 [Olaparib] + CN(CC[C@H](CSC1=CC=CC=C1)NC2=C(C=C(C=C2)S(=O)(=O)NC(=O)C3=CC=C(C=C3)N4CCC(CC4)[C@H](C5=CC=CC=C5C6=CC=C(C=C6)Cl)O)S(=O)(=O)C(F)(F)F)CCO [AZD4320] (first compound max 10 µM, 7x7, partner max 1 µM) | 0.16 | 0.268 | 0.211 | 0.573 | 0.598 | 0.164 | 0.997 | 0.178 | 0.337 | 0.22 | 0.266 | 0.21 | 0.17 | 0.986 | 0.149 | 0.463 | 0.234 | 0.378 | 0.175 | 1
O=C(c1cc(Cc2n[nH]c(=O)c3ccccc23)ccc1F)N1CCN(C(=O)C2CC2)CC1 [Olaparib] + COc1nnc2ccc(N3CCC(c4ccc(OCCN5CCN(C)C(=O)[C@H]5C)cc4)CC3)nn12 [AZD5153] (first compound max 10 µM, 7x7, partner max 1 µM) | 0.69 | 0.762 | 0.611 | 0.372 | 0.397 | 0.409 | 0.782 | 0.289 | 1 | 0.603 | 0.196 | 0.429 | 0.522 | 0.762 | 0.412 | 0.642 | 0.53 | 0.698 | 0.393 | 0.771
O=C(c1cc(Cc2n[nH]c(=O)c3ccccc23)ccc1F)N1CCN(C(=O)C2CC2)CC1 [Olaparib] + Cc1c2c(nn1C)CSCc1cc(n(C)n1)CSc1cc(c3ccccc3c1)OCCCc1c(C(=O)O)n(C)c3c-2c(Cl)ccc13 [AZD5991] (first compound max 10 µM, 7x7, partner max 1 µM) | 0.0932 | 1 | 0.242 | 0.301 | 0.181 | 0.185 | 0.379 | 0.239 | 1 | 0.104 | 0.128 | 0.214 | 0.0639 | 0.943 | 0.161 | 0.46 | 0.902 | 0.781 | 0.184 | 0.771
N#Cc1cnc(Nc2cc(NC[C@H]3CNCCO3)c(C(F)(F)F)cn2)cn1 [SRA737] + C=CCn1c(=O)c2cnc(Nc3ccc(N4CCN(C)CC4)cc3)nc2n1-c1cccc(C(C)(C)O)n1 [AZD1775] (first compound max 10 µM, partner max 1 µM) | 0.727 | 1 | 0.442 | 0.953 | 0.566 | 0.742 | 0.698 | 0.621 | 0.93 | 0.669 | 0.858 | 0.642 | 0.631 | 0.957 | 0.608 | 0.986 | 0.772 | 0.913 | 0.777 | 0.797
N#Cc1cnc(Nc2cc(NC[C@H]3CNCCO3)c(C(F)(F)F)cn2)cn1 [SRA737] + CCc1c2c(nc3ccc(O)cc13)-c1cc3c(c(=O)n1C2)COC(=O)[C@]3(O)CC [SN-38] (first compound max 10 µM, 7x7, partner max 0.3 µM) | 0.865 | 1 | 0.759 | 0.906 | 0.88 | 0.868 | 0.705 | 0.74 | 0.926 | 0.404 | 0.844 | 0.908 | 0.768 | 0.991 | 0.858 | 0.971 | 0.693 | 0.927 | 0.838 | 0.947
N#Cc1cnc(Nc2cc(NC[C@H]3CNCCO3)c(C(F)(F)F)cn2)cn1 [SRA737] + Nc1ccn([C@@H]2O[C@H](CO)[C@@H](O)C2(F)F)c(=O)n1 [Gemcitabine] (first compound max 10 µM, 7x7, partner max 0.3 µM) | 0.799 | 1 | 0.857 | 0.918 | 0.815 | 0.761 | 0.742 | 0.841 | 0.911 | 0.456 | 0.729 | 0.853 | 0.688 | 0.989 | 0.812 | 0.947 | 0.504 | 0.933 | 0.749 | 0.809
N#Cc1cnc(Nc2cc(NC[C@H]3CNCCO3)c(C(F)(F)F)cn2)cn1 [SRA737] + O=c1[nH]cc(F)c(=O)[nH]1 [5-Fluorouracil] (first compound max 10 µM, 7x7, partner max 20 µM) | 0.371 | 1 | 0.288 | 0.686 | 0.252 | 0.697 | 0.173 | 0.1 | 0.84 | 0.413 | 0.725 | 0.748 | 0.578 | 0.798 | 0.344 | 0.915 | 0.113 | 0.956 | 0.413 | 0.775
Cc1nc(-c2cn3c(n2)-c2ccc(-c4cnn(C(C)(C)C(N)=O)c4)cc2OCC3)n(C(C)C)n1 [Taselisib] + O=C(Nc1ccc2[nH]nc(-c3ccncc3)c2c1)[C@@H]1CCN(CC(=O)N2CCN(c3ccc(-c4ncccn4)cc3)CC2)C1 [SCH772984] (first compound max 10 µM, 7x7, partner max 5 µM) | 0.637 | 0.985 | 0.516 | 0.613 | 0.839 | 0.798 | 0.684 | 0.431 | 1 | 0.904 | 0.885 | 0.946 | 0.803 | 0.477 | 0.57 | 0.934 | 0.968 | 0.609 | 0.758 | 0.6
